What was measured:
Test in all cases: Eurofins kinase selectivity profile against 380 other human recombinant kinases (Table S2)
Assay type in all cases: biochemical
[1] = molecular target: T1, 380 human recombinant protein kinases (Homo sapiens, UniProt Q14289); details: Pyk2(h), read-out: Inhibition rate
T1 construct: purchased Eurofins (Celle Lévescault)
Summary of the method: (§1)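 The inhibitor was sent to a contract lab and screened at various concentrations against 380 human recombinant protein kinases. This served as a counter-screen for MK2 specificity.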

[2] = molecular target: T2, 380 human recombinant protein kinases (Homo sapiens, UniProt O00506); details: STK25(h), read-out: Inhibition rate (%)
T2 construct: purchased Eurofins (Celle Lévescault)
Summary of the method: as §1

[3] = molecular target: T3, 380 human recombinant protein kinases (Homo sapiens, UniProt Q96L34); details: MARK4(h), read-out: Inhibition rate
T3 construct: purchased Eurofins (Celle Lévescault)
T3 sequence (Q96L34 1-752): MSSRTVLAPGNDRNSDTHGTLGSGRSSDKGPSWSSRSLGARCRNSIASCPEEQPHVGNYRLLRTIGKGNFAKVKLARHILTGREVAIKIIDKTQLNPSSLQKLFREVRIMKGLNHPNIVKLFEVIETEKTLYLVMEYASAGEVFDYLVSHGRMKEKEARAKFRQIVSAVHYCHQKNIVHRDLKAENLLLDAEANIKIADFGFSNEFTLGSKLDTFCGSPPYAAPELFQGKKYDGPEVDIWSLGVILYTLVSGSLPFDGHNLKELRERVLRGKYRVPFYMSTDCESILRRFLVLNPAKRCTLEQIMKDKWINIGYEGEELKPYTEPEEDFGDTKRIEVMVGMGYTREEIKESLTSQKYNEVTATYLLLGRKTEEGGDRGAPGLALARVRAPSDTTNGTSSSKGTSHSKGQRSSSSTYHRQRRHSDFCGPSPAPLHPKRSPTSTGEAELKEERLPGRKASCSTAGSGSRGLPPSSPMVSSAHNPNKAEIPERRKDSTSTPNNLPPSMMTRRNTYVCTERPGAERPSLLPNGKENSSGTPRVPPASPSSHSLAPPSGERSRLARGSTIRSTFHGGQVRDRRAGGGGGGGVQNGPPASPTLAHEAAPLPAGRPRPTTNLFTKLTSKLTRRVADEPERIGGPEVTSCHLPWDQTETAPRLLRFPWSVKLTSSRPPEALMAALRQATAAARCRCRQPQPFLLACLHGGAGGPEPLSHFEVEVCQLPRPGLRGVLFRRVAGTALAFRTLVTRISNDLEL
Summary of the method: as §1

[4] = molecular target: T4, 380 human recombinant protein kinases (Homo sapiens, UniProt P08631); details: Hck(h), read-out: Inhibition rate
T4 construct: purchased Eurofins (Celle Lévescault)
Summary of the method: as §1

[5] = molecular target: T5, 380 human recombinant protein kinases (Homo sapiens, UniProt O00444); details: Plk4(h), read-out: Inhibition rate
T5 construct: purchased Eurofins (Celle Lévescault)
T5 sequence (O00444 1-970): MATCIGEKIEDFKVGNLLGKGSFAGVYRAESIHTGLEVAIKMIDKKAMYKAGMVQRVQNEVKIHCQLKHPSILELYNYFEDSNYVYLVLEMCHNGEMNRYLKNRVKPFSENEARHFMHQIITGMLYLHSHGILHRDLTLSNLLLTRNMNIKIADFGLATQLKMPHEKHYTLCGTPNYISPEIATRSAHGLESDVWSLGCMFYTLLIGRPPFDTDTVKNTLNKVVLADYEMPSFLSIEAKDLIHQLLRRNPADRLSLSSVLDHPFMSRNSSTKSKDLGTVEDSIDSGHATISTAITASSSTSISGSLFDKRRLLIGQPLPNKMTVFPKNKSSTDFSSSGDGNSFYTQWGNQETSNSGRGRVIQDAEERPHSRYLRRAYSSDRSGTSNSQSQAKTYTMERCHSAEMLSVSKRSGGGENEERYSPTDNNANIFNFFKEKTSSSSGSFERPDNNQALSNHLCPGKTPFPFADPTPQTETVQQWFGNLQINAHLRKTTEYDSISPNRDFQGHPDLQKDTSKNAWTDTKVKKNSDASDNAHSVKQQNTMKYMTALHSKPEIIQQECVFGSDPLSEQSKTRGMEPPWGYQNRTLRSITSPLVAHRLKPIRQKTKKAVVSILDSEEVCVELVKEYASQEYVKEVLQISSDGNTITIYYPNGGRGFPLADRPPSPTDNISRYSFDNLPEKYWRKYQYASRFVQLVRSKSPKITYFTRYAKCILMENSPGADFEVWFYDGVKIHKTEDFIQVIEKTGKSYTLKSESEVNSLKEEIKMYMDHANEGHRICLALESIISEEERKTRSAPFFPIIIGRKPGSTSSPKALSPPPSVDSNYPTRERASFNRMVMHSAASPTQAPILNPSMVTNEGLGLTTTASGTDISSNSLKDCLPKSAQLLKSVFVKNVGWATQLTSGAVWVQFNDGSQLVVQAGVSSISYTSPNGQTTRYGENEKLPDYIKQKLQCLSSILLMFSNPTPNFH
Summary of the method: as §1

[6] = molecular target: T6, 380 human recombinant protein kinases (Homo sapiens, UniProt Q9UM73); details: ALK(h), read-out: Inhibition rate
T6 construct: purchased Eurofins (Celle Lévescault)
Summary of the method: as §1

[7] = molecular target: T7, 380 human recombinant protein kinases (Homo sapiens, UniProt Q5TCY1); details: TTBK1(h), read-out: Inhibition rate (%)
T7 construct: purchased Eurofins (Celle Lévescault)
Summary of the method: as §1

T6 sequence (Q9UM73 19-1620): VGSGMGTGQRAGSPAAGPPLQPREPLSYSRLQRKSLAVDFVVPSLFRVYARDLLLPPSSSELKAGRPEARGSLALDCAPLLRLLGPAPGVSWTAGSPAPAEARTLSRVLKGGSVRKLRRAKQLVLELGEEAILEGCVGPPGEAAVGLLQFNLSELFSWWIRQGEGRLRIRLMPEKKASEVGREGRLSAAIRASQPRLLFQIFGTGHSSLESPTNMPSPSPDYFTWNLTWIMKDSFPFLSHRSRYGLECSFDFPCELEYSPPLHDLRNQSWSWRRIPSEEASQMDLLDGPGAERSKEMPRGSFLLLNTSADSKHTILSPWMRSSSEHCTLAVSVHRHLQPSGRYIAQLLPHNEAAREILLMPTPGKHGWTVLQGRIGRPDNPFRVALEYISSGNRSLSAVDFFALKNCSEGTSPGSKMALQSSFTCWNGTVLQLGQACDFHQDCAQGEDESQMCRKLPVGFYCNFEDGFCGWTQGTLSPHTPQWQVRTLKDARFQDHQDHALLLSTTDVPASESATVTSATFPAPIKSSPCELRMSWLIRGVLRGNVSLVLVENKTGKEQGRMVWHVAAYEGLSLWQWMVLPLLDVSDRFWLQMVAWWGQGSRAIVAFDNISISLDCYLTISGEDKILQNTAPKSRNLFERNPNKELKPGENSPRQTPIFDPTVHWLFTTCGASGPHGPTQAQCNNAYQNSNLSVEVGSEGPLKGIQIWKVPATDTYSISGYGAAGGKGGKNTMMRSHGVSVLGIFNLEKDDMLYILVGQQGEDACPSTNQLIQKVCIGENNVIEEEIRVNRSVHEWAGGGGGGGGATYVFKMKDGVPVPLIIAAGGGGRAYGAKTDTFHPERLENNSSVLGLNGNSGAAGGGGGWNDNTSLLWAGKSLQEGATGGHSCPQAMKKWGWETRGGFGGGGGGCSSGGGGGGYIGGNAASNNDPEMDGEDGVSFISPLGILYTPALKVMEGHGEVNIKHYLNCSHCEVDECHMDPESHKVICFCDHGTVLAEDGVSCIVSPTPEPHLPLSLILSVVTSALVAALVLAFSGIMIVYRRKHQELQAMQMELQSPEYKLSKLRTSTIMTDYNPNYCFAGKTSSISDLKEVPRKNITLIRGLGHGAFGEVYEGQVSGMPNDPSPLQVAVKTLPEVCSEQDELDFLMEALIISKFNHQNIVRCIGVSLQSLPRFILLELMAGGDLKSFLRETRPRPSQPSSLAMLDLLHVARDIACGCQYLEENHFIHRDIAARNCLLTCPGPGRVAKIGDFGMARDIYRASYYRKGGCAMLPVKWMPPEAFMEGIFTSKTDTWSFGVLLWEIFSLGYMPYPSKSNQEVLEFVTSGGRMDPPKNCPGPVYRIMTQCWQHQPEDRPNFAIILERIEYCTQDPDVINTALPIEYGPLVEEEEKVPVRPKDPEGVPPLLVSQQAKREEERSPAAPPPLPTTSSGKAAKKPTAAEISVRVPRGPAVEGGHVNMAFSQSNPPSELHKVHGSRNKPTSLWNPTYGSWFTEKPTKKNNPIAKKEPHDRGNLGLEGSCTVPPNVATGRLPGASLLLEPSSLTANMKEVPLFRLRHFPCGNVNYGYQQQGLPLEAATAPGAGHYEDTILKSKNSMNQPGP
T4 sequence (P08631 whole entry): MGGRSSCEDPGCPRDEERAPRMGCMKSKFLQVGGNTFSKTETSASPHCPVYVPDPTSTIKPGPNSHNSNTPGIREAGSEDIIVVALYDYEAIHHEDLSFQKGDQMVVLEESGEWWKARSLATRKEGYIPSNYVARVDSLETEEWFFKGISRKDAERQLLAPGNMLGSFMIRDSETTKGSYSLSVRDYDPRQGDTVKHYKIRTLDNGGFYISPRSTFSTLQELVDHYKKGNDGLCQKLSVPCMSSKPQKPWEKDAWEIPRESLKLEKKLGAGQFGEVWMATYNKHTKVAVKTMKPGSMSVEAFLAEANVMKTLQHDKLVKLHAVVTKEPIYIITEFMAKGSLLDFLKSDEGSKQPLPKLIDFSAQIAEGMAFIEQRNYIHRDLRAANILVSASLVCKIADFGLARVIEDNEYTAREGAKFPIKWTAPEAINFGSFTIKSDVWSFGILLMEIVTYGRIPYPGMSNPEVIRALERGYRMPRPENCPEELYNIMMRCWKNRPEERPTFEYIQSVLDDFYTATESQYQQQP
T7 sequence (Q5TCY1 whole entry): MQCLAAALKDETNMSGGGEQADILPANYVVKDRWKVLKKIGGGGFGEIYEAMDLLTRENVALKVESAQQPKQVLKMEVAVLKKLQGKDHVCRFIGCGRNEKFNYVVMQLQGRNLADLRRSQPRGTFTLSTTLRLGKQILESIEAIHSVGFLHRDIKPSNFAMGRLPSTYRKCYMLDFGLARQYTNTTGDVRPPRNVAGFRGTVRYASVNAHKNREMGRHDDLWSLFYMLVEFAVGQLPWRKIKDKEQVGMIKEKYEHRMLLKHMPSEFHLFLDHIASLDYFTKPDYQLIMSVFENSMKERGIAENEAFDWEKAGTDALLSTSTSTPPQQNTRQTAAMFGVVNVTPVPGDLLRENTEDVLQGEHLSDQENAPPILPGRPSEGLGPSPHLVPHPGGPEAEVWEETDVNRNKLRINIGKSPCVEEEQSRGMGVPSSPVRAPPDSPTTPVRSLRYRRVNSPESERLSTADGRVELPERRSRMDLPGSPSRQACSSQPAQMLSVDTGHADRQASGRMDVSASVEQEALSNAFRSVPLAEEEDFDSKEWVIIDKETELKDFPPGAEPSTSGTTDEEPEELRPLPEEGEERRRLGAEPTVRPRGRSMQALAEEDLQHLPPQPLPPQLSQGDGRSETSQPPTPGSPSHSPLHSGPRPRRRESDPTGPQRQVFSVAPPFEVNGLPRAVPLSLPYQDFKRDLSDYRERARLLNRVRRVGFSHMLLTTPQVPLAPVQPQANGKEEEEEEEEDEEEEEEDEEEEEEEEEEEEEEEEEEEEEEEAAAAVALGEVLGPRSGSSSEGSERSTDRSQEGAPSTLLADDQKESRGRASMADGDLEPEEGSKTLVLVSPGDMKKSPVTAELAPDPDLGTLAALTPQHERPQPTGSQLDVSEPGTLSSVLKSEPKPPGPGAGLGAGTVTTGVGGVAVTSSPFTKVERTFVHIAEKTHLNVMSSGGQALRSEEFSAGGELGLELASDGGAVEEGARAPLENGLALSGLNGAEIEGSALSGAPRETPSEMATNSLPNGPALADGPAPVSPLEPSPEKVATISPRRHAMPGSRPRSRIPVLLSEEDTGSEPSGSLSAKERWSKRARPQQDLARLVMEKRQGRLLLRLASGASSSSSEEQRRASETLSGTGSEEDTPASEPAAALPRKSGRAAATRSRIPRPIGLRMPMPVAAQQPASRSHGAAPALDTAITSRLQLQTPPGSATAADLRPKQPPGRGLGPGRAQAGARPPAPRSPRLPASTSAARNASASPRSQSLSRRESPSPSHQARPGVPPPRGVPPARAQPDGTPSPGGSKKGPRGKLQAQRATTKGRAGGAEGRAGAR
T1 sequence (Q14289 whole entry): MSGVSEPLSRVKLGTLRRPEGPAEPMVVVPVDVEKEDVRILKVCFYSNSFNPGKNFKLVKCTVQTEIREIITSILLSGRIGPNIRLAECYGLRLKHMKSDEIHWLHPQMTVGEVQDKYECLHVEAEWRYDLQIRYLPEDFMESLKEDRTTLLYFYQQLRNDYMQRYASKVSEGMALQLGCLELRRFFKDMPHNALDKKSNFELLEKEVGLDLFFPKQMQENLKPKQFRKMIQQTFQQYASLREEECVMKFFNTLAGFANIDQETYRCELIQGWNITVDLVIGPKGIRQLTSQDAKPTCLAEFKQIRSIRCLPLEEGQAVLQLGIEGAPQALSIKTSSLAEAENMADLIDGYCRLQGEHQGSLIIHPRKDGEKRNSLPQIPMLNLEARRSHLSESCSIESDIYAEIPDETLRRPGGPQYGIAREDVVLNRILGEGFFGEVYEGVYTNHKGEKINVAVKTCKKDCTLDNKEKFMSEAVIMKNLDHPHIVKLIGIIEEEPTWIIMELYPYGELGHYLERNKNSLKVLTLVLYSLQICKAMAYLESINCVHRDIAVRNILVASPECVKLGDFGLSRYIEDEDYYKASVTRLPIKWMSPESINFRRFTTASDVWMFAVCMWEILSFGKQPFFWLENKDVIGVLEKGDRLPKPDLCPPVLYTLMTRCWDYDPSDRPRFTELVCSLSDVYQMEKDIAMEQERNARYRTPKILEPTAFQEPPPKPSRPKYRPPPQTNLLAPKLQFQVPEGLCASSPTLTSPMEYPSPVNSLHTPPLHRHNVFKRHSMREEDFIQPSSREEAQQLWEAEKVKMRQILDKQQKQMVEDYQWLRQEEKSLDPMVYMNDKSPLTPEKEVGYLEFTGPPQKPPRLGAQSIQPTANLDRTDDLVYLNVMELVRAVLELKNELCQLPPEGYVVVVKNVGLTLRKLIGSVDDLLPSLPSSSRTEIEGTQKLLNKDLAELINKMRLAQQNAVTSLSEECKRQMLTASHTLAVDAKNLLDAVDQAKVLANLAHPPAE
T2 sequence (O00506 whole entry): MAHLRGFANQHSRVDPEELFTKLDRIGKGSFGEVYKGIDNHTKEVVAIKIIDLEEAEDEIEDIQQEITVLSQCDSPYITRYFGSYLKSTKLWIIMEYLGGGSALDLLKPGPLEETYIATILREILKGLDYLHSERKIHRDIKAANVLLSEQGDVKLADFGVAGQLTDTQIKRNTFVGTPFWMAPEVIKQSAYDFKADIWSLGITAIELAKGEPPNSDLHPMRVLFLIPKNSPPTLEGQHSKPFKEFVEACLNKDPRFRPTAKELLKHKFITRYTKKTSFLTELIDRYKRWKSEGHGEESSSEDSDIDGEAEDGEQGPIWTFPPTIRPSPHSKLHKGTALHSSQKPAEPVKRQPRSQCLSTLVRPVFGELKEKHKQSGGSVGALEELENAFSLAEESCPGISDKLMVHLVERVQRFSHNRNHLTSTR

Q: Which results are given for `C=CC(=O)Nc1cc(-c2cc(-c3cc4c([nH]3)CCNC4=O)ccn2)ccc1OC(F)(F)F` [compound 11]?
A: inhibition at 0.01 µM ([1]; 10 nM): -11%; inhibition at 0.1 µM ([1]; 100 nM): -5%; inhibition at 1 µM ([1]; 1000 nM): 6%; inhibition at 0.01 µM ([2]; 10 nM): -4%; inhibition at 0.1 µM ([2]; 100 nM): 1%; inhibition at 1 µM ([2]; 1000 nM): 0%; inhibition at 0.01 µM ([3]; 10 nM): -10%; inhibition at 0.1 µM ([3]; 100 nM): -2%; inhibition at 1 µM ([3]; 1000 nM): -4%; inhibition at 0.01 µM ([4]; 10 nM): -3%; inhibition at 0.1 µM ([4]; 100 nM): -7%; inhibition at 1 µM ([4]; 1000 nM): 4%; inhibition at 0.01 µM ([5]; 10 nM): 9%; inhibition at 0.1 µM ([5]; 100 nM): 4%; inhibition at 1 µM ([5]; 1000 nM): 33%; inhibition at 0.01 µM ([6]; 10 nM): 6%; inhibition at 0.1 µM ([6]; 100 nM): 6%; inhibition at 1 µM ([6]; 1000 nM): 16%; inhibition at 0.01 µM ([7]; 10 nM): -2%; inhibition at 0.1 µM ([7]; 100 nM): -5%; inhibition at 1 µM ([7]; 1000 nM): 3%

— publication PMC11233931, “Remodeling tumor‐associated macrophage for anti‐cancer effects by rational design of irreversible inhibition of mitogen‐activated protein kinase‐activated protein kinase 2” (MedComm, 2024)
